Three molecules from US20240246942A1, “KINASE INHIBITORS FOR THE TREATMENT OF NEURODEGENERATIVE DISEASES” (priority 2020, published 2024) can be followed below.

Assay in all cases: biochemical
Assay [1] addresses T1, panel of 374 wild-type kinases (Homo sapiens, UniProt Q8IVT5).
T1 construct: purchased Reaction Biology Corporation
T1 sequence (Q8IVT5 1-923): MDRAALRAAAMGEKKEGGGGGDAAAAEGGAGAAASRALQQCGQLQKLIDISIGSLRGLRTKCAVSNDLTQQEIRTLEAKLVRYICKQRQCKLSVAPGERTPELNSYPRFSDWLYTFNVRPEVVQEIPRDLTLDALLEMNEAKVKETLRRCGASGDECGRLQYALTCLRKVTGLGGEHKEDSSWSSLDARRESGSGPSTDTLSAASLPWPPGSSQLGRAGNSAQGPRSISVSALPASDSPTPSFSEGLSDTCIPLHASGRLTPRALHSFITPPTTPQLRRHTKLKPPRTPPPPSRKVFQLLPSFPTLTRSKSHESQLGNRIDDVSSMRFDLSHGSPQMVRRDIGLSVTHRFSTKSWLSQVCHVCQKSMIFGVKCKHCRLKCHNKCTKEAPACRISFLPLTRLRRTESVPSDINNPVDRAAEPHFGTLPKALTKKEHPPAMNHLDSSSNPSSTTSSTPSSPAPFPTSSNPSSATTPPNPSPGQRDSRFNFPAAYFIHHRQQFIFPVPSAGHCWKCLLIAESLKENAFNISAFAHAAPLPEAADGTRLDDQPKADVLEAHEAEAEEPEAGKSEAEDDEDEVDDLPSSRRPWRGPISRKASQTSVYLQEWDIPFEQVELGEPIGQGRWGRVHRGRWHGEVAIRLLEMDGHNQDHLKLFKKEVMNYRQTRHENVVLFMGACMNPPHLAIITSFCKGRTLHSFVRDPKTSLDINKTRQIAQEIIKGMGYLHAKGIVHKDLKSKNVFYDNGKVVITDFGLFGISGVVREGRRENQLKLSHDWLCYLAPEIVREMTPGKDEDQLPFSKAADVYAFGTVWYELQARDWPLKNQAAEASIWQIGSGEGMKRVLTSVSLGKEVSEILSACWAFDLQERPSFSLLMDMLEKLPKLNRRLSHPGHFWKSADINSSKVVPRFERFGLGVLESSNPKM
To be noted: read-out: % Enzyme Activity (relative to DMSO controls), KSR1.

Assay [2] deals with T2, panel of 374 wild-type kinases (Homo sapiens, UniProt P29320).
T2 construct: purchased Reaction Biology Corporation
T2 sequence (P29320 21-983): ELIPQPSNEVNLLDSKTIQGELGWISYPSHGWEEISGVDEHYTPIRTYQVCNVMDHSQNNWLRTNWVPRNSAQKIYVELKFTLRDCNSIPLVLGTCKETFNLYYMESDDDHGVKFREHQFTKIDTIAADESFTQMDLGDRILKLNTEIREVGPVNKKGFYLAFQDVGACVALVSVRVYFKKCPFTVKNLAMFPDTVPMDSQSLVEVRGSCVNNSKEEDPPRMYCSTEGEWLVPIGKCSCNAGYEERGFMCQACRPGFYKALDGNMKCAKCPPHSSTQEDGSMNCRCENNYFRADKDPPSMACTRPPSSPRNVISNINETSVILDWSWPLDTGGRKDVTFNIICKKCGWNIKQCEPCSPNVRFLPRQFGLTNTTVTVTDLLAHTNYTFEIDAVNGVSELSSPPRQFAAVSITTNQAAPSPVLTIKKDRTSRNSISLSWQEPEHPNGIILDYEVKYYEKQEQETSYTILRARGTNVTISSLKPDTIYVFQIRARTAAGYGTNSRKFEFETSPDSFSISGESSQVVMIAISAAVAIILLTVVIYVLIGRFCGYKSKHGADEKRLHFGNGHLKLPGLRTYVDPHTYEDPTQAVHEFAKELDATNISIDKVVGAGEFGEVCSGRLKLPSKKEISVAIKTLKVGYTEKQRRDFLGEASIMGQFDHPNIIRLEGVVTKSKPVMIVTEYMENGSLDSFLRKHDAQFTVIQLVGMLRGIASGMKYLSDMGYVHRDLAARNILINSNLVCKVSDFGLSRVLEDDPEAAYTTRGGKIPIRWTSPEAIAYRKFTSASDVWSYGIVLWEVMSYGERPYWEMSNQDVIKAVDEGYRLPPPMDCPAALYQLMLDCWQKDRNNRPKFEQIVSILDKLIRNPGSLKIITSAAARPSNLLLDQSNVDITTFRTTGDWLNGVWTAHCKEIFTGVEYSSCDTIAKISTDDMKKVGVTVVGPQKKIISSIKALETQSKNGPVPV
To be noted: read-out: % Enzyme Activity (relative to DMSO controls), EPHA3.

In assay [3] the target is T3, panel of 374 wild-type kinases (Homo sapiens, UniProt Q05655).
T3 construct: purchased Reaction Biology Corporation
To be noted: read-out: % Enzyme Activity (relative to DMSO controls), kinase PKCd.

For assay [4], the target named is T4, panel of 374 wild-type kinases (Homo sapiens, UniProt Q16816).
T4 construct: purchased Reaction Biology Corporation
To be noted: read-out: % Enzyme Activity (relative to DMSO controls), kinase PHKg1.

Assay [5] deals with T5, panel of 374 wild-type kinases (Homo sapiens, UniProt P04049).
T5 construct: purchased Reaction Biology Corporation
To be noted: read-out: % Enzyme Activity (relative to DMSO controls), kinase RAF1.

Assay [6] addresses T6, panel of 374 wild-type kinases (Homo sapiens, UniProt P29376).
T6 construct: purchased Reaction Biology Corporation
To be noted: kinase TYK1/LTK, read-out: % Enzyme Activity (relative to DMSO controls).

Assay [7] has as its target T7, panel of 374 wild-type kinases (Homo sapiens, UniProt P21802).
T7 construct: purchased Reaction Biology Corporation
To be noted: read-out: % Enzyme Activity (relative to DMSO controls), FGFR2.

Assay [8] has as its target T8, panel of 374 wild-type kinases (Homo sapiens, UniProt Q13164).
T8 construct: purchased Reaction Biology Corporation
To be noted: read-out: % Enzyme Activity (relative to DMSO controls), ERK5/MAPK7.

T4 sequence (Q16816 whole entry): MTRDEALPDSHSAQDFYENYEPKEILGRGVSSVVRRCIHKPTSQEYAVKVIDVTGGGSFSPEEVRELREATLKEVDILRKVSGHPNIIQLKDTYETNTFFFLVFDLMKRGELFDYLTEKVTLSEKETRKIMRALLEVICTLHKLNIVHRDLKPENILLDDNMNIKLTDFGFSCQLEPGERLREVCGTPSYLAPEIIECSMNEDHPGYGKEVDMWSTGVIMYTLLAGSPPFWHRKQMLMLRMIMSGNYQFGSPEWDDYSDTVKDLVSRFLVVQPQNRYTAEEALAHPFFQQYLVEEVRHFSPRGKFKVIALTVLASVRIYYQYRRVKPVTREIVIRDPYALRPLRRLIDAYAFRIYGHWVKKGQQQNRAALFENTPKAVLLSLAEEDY
T6 sequence (P29376 17-864): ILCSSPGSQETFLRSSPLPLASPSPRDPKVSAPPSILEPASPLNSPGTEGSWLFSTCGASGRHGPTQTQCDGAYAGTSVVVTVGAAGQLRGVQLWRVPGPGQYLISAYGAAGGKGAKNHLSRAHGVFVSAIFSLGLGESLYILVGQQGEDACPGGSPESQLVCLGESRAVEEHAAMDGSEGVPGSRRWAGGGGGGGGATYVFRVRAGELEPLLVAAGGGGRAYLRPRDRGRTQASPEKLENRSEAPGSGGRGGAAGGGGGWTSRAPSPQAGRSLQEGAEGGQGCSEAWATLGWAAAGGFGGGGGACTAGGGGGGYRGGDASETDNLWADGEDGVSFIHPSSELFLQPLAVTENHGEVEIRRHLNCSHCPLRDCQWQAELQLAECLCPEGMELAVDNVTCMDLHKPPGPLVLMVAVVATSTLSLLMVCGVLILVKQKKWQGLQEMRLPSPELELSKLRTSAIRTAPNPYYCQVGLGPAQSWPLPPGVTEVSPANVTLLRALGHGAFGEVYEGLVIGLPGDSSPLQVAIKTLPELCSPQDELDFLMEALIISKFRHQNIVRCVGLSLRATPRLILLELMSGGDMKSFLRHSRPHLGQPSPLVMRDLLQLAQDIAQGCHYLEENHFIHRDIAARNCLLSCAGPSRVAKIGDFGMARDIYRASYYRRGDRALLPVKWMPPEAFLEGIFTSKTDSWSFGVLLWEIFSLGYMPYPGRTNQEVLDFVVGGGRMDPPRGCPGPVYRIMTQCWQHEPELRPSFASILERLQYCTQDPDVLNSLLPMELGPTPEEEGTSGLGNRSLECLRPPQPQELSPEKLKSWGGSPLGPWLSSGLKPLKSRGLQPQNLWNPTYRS
T8 sequence (Q13164 whole entry): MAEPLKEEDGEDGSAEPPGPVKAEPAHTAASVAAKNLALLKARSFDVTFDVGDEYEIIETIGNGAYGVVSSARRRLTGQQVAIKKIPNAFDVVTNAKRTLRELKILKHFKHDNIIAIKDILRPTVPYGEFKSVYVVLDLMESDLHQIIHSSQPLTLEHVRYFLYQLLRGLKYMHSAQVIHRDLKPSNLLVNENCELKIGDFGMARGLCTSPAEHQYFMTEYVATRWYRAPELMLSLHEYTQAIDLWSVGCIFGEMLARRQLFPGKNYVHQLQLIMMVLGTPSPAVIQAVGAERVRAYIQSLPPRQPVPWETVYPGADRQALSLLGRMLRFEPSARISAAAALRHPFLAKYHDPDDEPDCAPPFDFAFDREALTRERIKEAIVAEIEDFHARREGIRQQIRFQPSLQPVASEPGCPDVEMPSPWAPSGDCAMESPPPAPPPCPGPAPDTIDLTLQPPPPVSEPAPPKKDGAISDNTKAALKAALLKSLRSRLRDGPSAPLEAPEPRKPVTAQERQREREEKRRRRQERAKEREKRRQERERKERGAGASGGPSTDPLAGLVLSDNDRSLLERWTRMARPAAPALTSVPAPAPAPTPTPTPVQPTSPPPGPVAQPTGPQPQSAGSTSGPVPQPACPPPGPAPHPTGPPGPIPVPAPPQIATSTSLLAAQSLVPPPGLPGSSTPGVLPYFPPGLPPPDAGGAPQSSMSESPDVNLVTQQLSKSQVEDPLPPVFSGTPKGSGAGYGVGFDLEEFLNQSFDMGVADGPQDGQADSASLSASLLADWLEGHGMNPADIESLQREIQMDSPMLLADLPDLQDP
T7 sequence (P21802 22-821): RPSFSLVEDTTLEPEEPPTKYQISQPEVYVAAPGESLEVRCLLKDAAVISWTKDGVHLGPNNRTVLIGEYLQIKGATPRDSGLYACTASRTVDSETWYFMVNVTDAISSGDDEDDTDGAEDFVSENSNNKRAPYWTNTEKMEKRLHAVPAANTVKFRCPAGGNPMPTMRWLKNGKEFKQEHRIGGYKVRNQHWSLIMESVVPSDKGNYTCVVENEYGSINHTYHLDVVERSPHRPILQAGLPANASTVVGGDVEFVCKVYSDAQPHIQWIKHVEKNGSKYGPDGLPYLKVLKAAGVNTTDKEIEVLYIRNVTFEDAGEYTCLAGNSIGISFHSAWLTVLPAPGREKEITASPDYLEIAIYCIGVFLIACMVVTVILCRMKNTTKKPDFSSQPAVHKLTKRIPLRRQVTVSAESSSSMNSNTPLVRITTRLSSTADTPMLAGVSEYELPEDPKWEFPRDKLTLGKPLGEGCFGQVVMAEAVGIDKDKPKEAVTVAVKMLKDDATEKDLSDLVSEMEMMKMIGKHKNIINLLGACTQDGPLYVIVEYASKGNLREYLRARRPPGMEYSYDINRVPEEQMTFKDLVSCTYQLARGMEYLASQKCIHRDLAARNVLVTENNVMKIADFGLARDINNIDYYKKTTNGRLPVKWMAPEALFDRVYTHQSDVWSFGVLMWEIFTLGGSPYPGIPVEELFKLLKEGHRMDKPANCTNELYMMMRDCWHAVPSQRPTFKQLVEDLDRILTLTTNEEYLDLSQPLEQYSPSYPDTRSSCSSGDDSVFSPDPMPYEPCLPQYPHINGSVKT
T3 sequence (Q05655 whole entry): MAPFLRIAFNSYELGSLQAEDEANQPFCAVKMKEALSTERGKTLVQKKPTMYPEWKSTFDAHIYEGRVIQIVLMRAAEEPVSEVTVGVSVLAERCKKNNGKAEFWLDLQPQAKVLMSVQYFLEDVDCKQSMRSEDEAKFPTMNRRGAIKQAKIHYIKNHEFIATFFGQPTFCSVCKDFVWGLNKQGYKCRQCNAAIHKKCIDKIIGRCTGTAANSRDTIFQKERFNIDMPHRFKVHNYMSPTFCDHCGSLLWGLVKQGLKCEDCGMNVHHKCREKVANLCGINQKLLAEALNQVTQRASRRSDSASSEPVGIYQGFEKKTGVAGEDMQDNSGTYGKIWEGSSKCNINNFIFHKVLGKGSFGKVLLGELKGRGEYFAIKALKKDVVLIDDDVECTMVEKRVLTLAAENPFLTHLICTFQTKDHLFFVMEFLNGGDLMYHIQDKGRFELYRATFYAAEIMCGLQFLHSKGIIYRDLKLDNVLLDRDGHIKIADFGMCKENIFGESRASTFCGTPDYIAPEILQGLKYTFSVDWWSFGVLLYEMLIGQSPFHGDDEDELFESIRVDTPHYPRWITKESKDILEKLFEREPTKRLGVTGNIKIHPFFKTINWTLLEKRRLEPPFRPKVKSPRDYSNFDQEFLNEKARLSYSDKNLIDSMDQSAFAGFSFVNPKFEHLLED
T5 sequence (P04049 whole entry): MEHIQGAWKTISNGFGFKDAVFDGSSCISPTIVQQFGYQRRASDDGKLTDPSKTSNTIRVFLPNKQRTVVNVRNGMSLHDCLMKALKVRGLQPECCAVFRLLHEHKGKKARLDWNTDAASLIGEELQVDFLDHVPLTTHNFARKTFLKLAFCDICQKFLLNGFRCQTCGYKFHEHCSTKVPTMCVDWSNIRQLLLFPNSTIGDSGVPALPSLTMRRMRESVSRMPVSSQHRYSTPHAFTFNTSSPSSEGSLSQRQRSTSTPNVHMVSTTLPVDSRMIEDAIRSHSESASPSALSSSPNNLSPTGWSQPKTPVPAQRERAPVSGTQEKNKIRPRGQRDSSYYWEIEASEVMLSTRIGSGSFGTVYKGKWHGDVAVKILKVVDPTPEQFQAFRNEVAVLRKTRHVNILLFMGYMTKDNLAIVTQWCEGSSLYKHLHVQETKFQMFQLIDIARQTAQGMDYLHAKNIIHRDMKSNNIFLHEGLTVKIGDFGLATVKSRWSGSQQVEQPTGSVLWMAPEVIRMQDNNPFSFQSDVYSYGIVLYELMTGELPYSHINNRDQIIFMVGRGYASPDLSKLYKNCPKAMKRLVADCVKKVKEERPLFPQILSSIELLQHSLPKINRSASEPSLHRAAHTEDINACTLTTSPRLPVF

In the case of `O=C(Nc1cnn(-c2csc(C(=O)NC3COC3)c2)c1)Nc1ccccc1Cl` [Compound 17, 4-(4-(3-(2-chlorophenyl)ureido)-1H-pyrazol-1-yl)-N-(oxetan-3-yl)thiophene-2-carboxamide], the remaining activity at 5 µM in assay [1] is 101%; in assay [2], 104%; in assay [3], 112%; in assay [4], 102%; in assay [5] it was 87%; in assay [6], 99.2%. Moreover, the remaining activity at 5 µM is 95.6% in assay [7] and 119% in assay [8].
For the molecule `O=C(Nc1cnn(-c2csc(C(=O)NC3COC3)c2)c1)Nc1c(F)cccc1Cl` [Compound 25, 4-(4-(3-(2-chloro-6-fluorophenyl)ureido)-1H-pyrazol-1-yl)-N-(oxetan-3-yl)thiophene-2-carboxamide], the remaining activity at 5 µM was 105% in assay [1]; 96.1% in assay [2]; 101% in assay [3]; 91.2% in assay [4]; 92.5% in assay [5]; 92.2% in assay [6]. Besides, the remaining activity at 5 µM in assay [7] is 103%; in assay [8], 75.9%.
On to `Cc1sc(C(=O)NC2COC2)cc1-n1cc(NC(=O)Nc2c(F)cccc2Cl)cn1` [Compound 27, 4-(4-(3-(2-chloro-6-fluorophenyl)ureido)-1H-pyrazol-1-yl)-5-methyl-N-(oxetan-3-yl)thiophene-2-carboxamide], for which the remaining activity at 10 µM in assay [1] (10 uM) came out at 103%; in assay [2] (10 uM) it was 109%; in assay [3] (10 uM), 98%; in assay [4] (10 uM), 84%; in assay [5] (10 uM), 92.6%; in assay [6] (10 uM), 114%. Moreover, the remaining activity at 10 µM in assay [7] (10 uM) worked out at 106%; in assay [8] (10 uM), 95.7%.
